Structures are written as SMILES. Where two headings read alike, the source gives them in different places.

The text below walks through data of patent US20230113037A1 (Bayer Aktiengesellschaft, priority 2019, published 2023).

Test [1] deals with T1, AHR (Mus musculus, UniProt P30561).
T1 sequence (P30561 1-848 P471L/N533S/M589L): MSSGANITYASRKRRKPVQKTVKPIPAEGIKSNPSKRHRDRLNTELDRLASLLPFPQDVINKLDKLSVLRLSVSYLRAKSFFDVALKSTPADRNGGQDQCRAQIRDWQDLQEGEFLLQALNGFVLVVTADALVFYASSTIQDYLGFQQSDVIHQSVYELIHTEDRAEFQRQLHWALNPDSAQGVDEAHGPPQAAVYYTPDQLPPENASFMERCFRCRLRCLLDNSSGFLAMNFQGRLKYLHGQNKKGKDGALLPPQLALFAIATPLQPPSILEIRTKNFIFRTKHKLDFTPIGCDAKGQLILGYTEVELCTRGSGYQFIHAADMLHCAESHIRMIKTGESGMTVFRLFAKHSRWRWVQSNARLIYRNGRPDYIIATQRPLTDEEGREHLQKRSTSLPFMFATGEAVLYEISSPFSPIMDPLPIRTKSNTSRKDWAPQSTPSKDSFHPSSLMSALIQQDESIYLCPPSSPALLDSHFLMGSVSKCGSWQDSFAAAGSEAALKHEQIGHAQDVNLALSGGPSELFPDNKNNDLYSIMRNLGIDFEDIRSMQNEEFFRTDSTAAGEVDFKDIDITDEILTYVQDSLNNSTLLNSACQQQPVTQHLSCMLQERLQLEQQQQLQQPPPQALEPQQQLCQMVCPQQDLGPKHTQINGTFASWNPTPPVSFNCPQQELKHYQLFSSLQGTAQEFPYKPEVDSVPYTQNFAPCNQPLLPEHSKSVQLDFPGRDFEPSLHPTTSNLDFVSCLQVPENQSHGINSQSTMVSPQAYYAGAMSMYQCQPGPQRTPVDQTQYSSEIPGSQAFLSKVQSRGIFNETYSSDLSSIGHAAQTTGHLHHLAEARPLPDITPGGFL
Description: In vitro assay 3: antagonism in mouse cell line (AHR transactivation, firefly luciferase reporter, kynurenic acid prestimulated). Format: cell-based. In short, it runs like this:
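Luminescence from an AHR-dependent DRE-luciferase reporter, stably integrated in mouse cells, quantifies blockade of kynurenic acid-driven activation. Unstimulated cells mark maximal inhibition; normalization uses both control types, and multiply tested compounds carry mean or median values.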
Background: Reporter assays use an easily measured gene product as a stand-in for the process of interest.

In test [2] the target is T2, AHR (Homo sapiens, UniProt P35869).
T2 construct: U87 MG glioblastoma cells (ATCC #HTB-14) endogenously expressing AHR; endogenous in cells; host or cells: U87 MG glioblastoma cells (ATCC #HTB-14)
T2 sequence (P35869 11-848): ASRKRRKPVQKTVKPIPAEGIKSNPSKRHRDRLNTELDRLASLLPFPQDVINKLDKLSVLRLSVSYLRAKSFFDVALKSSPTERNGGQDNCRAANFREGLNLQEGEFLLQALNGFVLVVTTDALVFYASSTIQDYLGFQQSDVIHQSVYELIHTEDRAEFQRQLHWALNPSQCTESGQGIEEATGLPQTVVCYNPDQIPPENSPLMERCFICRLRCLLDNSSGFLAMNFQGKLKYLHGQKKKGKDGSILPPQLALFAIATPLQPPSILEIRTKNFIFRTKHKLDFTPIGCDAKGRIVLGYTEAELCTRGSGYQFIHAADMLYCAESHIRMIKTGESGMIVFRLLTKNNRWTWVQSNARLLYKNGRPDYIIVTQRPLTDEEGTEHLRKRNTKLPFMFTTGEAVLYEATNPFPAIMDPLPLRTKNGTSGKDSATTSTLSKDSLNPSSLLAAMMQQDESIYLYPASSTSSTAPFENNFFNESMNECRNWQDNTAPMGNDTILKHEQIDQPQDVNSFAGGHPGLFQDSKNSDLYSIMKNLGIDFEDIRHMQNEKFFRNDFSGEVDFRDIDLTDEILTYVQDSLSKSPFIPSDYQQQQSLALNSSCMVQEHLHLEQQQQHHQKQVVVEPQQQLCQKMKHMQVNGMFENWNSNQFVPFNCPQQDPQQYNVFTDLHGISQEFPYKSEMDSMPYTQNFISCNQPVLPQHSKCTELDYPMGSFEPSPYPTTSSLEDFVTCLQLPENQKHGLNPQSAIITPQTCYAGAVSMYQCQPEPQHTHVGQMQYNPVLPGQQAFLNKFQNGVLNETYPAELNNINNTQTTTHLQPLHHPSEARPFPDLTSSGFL
Nature of the test: In vitro assay 1: antagonism in human cell line (AHR transactivation, firefly luciferase reporter, kynurenic acid prestimulated). Type of test: cell-based. The note with it: AHR Antagonism Human IC50 [M]. In short, it runs like this:
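Antagonism measured as loss of kynurenic acid-driven firefly luciferase from DRE reporter in stably transfected U87 MG cells; constitutive Renilla signal monitors cytotoxicity. Positive/negative control normalization, staurosporine 5 μM with 150 μM kynurenic acid as inhibition control; replicates given as mean or median.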

The mark [3] stands for this setting: mouse Hepa 1c1c7 cells, 200 μM kynurenic acid, 20 hours, read-out: AHR Antagonism Mouse IC50.
[4] abbreviates: Hepa 1c1c7 cells, 200 μM kynurenic acid, 20 hours, firefly luciferase reporter, read-out: AHR Antagonism Mouse IC50.

As for `N#Cc1ccc(-c2nc3c4ccccc4nc(N[C@@H]4CNCCNC4=O)n3n2)cc1` [Example 718, 4-(5-{[(6R)-5-oxo-1,4-diazepan-6-yl]amino}[1,2,4]triazolo[1,5-c]quinazolin-2-yl)benzonitrile], the results for the IC50 in test [1] (setting [3]) and in test [2] were 0.00812 µM and 1.93e-08 M, respectively.
With `CCCCNC(=O)[C@H](C)Nc1nc2c(Br)cccc2c2nc(-c3ccc(Cl)cc3OC(F)F)nn12` [Example 686, N^2-{7-bromo-2-[4-chloro-2-(difluoromethoxy)phenyl][1,2,4]triazolo[1,5-c]quinazolin-5-yl}-N-butyl-L-alaninamide], the IC50 was 0.0185 µM in test [1] (setting [3]) and 2.1e-07 M in test [2].
For `COc1ccc(-c2nc3c4ccccc4nc(N[C@H](C)C(=O)N4CCNCC4)n3n2)cc1` [Example 988, (2R)-2-{[2-(4-methoxyphenyl)[1,2,4]triazolo[1,5-c]quinazolin-5-yl]amino}-1-(piperazin-1-yl)propan-1-one-hydrogen chloride (1/1)], the concentration for half-maximal inhibition (IC50) stood at 0.0138 µM in test [1] (setting [4]) and 1.49e-08 M in test [2] (firefly luciferase reporter).
For the molecule `COc1cccc(-c2nc3c4c(C)cccc4nc(N[C@H]4CCCNC4=O)n3n2)c1` [Example 182, (3S)-3-{[2-(3-methoxyphenyl)-10-methyl[1,2,4]triazolo[1,5-c]quinazolin-5-yl]amino}piperidin-2-one], the half-inhibitory concentration (IC50) in test [1] (setting [3]) is 1.02 µM; in test [2], 2.54e-07 M.
As to `COc1ccc(-c2nc3c4cccc(O)c4nc(N[C@@H]4CCCCNC4=O)n3n2)cc1` [Example 669, (3R)-3-{[7-hydroxy-2-(4-methoxyphenyl)[1,2,4]triazolo[1,5-c]quinazolin-5-yl]amino}azepan-2-one], the half-maximal inhibitory concentration (IC50) in test [1] (read-out: AHR Antagonism Mouse IC50, mouse Hepa 1c1c7 cells, 200 μM kynurenic acid, 20 hours) was 0.00496 µM; in test [2] it was 1.99e-09 M.
For `CS(=O)(=O)c1ccccc1-c1nc2c3ccccc3nc(N[C@@H]3CCCCNC3=O)n2n1` [Example 649, (3R)-3-({2-[2-(methanesulfonyl)phenyl][1,2,4]triazolo[1,5-c]quinazolin-5-yl}amino)azepan-2-one], the values for the half-inhibitory concentration (IC50) in test [1] (setting [3]) and in test [2] were 0.0273 µM and 3.8e-07 M, respectively.
As for `COc1ccc(-c2nc3c4cccc(S(C)(=O)=O)c4nc(N[C@@H]4CCCCNC4=O)n3n2)cc1` [Example 842, (3R)-3-{[7-(methanesulfonyl)-2-(4-methoxyphenyl)[1,2,4]triazolo[1,5-c]quinazolin-5-yl]amino}azepan-2-one], the IC50 in test [1] (setting [4]) came to 0.00992 µM; in test [2] (firefly luciferase reporter) it was 4.03e-10 M.
As for `Cn1cc(-c2nc3c4ccccc4nc(NC4CCNC4=O)n3n2)cn1` (stereo not drawn) [Example 15, 3-{[2-(1-methyl-1H-pyrazol-4-yl)[1,2,4]triazolo[1,5-c]quinazolin-5-yl]amino}pyrrolidin-2-one], the IC50 in test [1] (setting [3]) worked out at 7.82 µM; in test [2], 1.78e-05 M.
For the molecule `COc1ccc(-c2nc3c4ccc(OC)cc4nc(N[C@@H]4CCCCNC4=O)n3n2)cc1` [Example 549, (3R)-3-{[8-methoxy-2-(4-methoxyphenyl)[1,2,4]triazolo[1,5-c]quinazolin-5-yl]amino}azepan-2-one], the half-maximal inhibitory concentration (IC50) came to 17.4 µM in test [1] (setting [3]) and 7.33e-08 M in test [2].
Consider `Cn1cc(-c2nc3c4cccc(Br)c4nc(N[C@H]4CNCCNC4=O)n3n2)cn1` [Example 983, (6S)-6-{[7-bromo-2-(1-methyl-1H-pyrazol-4-yl)[1,2,4]triazolo[1,5-c]quinazolin-5-yl]amino}-1,4-diazepan-5-one], for which the IC50 in test [1] (setting [4]) was found to be 0.189 µM; in test [2] (firefly luciferase reporter) it was 8.18e-08 M.
For `COc1ccc(-c2nc3c4ccccc4nc(N[C@@H]4CCCCNC4=O)n3n2)cc1F` [Example 635, (3R)-3-{[2-(3-fluoro-4-methoxyphenyl)[1,2,4]triazolo[1,5-c]quinazolin-5-yl]amino}azepan-2-one], the figures for the half-maximal inhibitory concentration (IC50) in test [1] (setting [3]) and in test [2] were 0.0011 µM and 9.49e-10 M, respectively.
`CCCCNC(=O)CNc1nc2ccccc2c2nc(-c3ccccc3OC(F)(F)F)nn12` [Example 466, N-butyl-N^2-{2-[2-(trifluoromethoxy)phenyl][1,2,4]triazolo[1,5-c]quinazolin-5-yl}glycinamide]: the IC50 in test [1] (setting [3]) came out at 0.107 µM; in test [2], 1.26e-07 M.

As usually defined, the IC50 is the midpoint of a concentration-inhibition curve.
